Assay results reported in EPA's ToxRefDB 2.

Legend:
rat [1] = conditions: Peri- and post-natal toxicity study (Segment III); sprague dawley; Oral; Gavage/Intubation; dose end: 40 PND; group: parental; systemic / clinical chemistry / estradiol / estradiol + systemic / organ weight / adrenal gland / absolute
rat [2] = conditions: Developmental neurotoxicity study, long evans, Oral, Gavage/Intubation, dose end: 110 PND, group: cannot be grouped
rat [3] = conditions: Combined chronic toxicity/carcinogenicity, sprague dawley, Oral, Feed, dose end: 104 week, group: systemic
rat [4] = conditions: Subchronic oral toxicity in rodents, fischer, Water, dose end: 13 week, group: systemic
rat [5] = conditions: Combined chronic toxicity/carcinogenicity, fischer, Oral, Feed, dose end: 24 month, group: systemic
mouse [6] = conditions: Carcinogenicity, cd1, Oral, [Not Specified], dose end: 24 month, group: systemic
rat [7] = conditions: Prenatal developmental toxicity study, sprague dawley, Oral, Gavage/Intubation, dose end: 15 GD
dog [8] = conditions: Chronic toxicity; beagle; Oral; Feed; dose end: 12 month; group: systemic; systemic / pathology microscopic / kidney / adenoma
dog [9] = conditions: Sub-acute repeat dose toxicity; beagle; Oral; Gavage/Intubation; dose end: 4 week; group: systemic; systemic / in life observation / clinical signs / abnormal feces
rabbit = conditions: Prenatal developmental toxicity study, new zealand white, Oral, Gavage/Intubation, dose end: 19 GD
rat [10] = conditions: Fertility (Segment I), sprague dawley, Oral, Gavage/Intubation, dose end: 7 GD
rat [11] = conditions: Prenatal developmental toxicity study, sprague dawley, Oral, Gavage/Intubation, dose end: 17 GD
rat [12] = conditions: Sub-acute repeat dose toxicity, sprague dawley, Oral, Gavage/Intubation, dose end: 4 week, group: systemic
rat [13] = conditions: Prenatal developmental toxicity study, sprague dawley, Oral, Gavage/Intubation, dose end: 17 GD; remark: listed apart in the source
rat [14] = conditions: Carcinogenicity; fischer; Oral; Feed; dose end: 103 week; group: systemic; systemic / in life observation / body weight / body weight
rat [15] = conditions: Sub-acute repeat dose toxicity, fischer, Oral, Feed, dose end: 14 day, group: systemic
mouse [16] = conditions: Sub-acute repeat dose toxicity, b6c3f1, Oral, Feed, dose end: 14 day, group: systemic
rat [17] = conditions: Subchronic oral toxicity in rodents, fischer, Feed, dose end: 13 week, group: systemic, systemic / in life observation / body weight / body weight
mouse [18] = conditions: Carcinogenicity, b6c3f1, Oral, Feed, dose end: 103 week, group: systemic
[19] = systemic / in life observation / body weight / body weight gain + systemic / in life observation / clinical signs / vaginal discharge + …
[20] = systemic / pathology microscopic / kidney / adenoma + systemic / organ weight / kidney / absolute + systemic / organ weight / kidney / …
[21] = systemic / urinalysis / protein / protein + systemic / urinalysis / bilirubin / total bilirubin
[22] = systemic / urinalysis / protein / protein + systemic / urinalysis / bilirubin / total bilirubin + systemic / urinalysis / specific gravity/…
[23] = systemic / pathology microscopic / adrenal gland / pheochromocytoma benign + systemic / pathology microscopic / adrenal gland / …
[24] = systemic / pathology gross / lung / nodule(s)
[25] = systemic / pathology microscopic / liver / hemangiosarcoma + systemic / pathology microscopic / lung / adenoma + systemic / pathology …
[26] = group: developmental, developmental / developmental malformation / bone / absent
[27] = group: maternal, systemic / in life observation / clinical signs / defecation (diarrhea) + systemic / in life observation / clinical signs / soft stools
[28] = group: developmental, systemic / in life observation / body weight / fetal weight
[29] = group: maternal, systemic / in life observation / body weight / body weight gain + systemic / in life observation / clinical signs / defecation + systemic / …
[30] = group: maternal, reproductive / reproductive performance / estrous cycle / corpora lutea + reproductive / reproductive performance / implantations / …
[31] = group: parental, systemic / in life observation / body weight / body weight gain + systemic / in life observation / food consumption / food consumption
[32] = group: developmental, developmental / developmental malformation / trunk / thoracogastroschisis + systemic / in life observation / body weight / fetal weight
[33] = group: maternal, reproductive / reproductive performance / postimplantation loss / postimplantation loss + systemic / in life observation / body weight / …
[34] = systemic / clinical chemistry / cholesterol / cholesterol + systemic / pathology microscopic / kidney / karyomegaly + systemic / pathology …
[35] = systemic / pathology microscopic / kidney / karyomegaly + systemic / pathology microscopic / kidney / necrosis + systemic / pathology …
[36] = group: developmental, developmental / developmental malformation / bone / branched + developmental / developmental malformation / bone / full supernumerary + …
[37] = group: developmental, developmental / developmental malformation / bone / short + developmental / developmental malformation / bone / unossified + developmental…
[38] = group: maternal, systemic / in life observation / body weight / body weight + systemic / in life observation / body weight / body weight gain + systemic / in…
[39] = systemic / in life observation / body weight / body weight gain + systemic / in life observation / mortality / mortality + systemic / in …
[40] = systemic / in life observation / body weight / body weight + systemic / in life observation / body weight / body weight gain + systemic / in…
[41] = systemic / pathology microscopic / liver / hepatocellular adenoma + systemic / pathology microscopic / liver / hepatocellular carcinoma

CCOC(=O)c1ccc(O)cc1 [Ethylparaben]
LEL (rat [1]): 1000 mg/kg/day | LOAEL (rat [1]): > 1000 mg/kg/day | NEL (rat [1]): 250 mg/kg/day | NOAEL (rat [1]): ≥ 1000 mg/kg/day

CCC[CH2][Sn]([CH2]CCC)([CH2]CCC)[O][Sn]([CH2]CCC)([CH2]CCC)[CH2]CCC [Bis(tributyltin)oxide]
NEL (rat [2]; developmental / developmental malformation / mouth / jaw / cleft palate + developmental / offspring survival late / [other] / [other] + …): 2.5 mg/kg/day | LOAEL (rat [2]; [19]): > 16 mg/kg/day | NOAEL (rat [2]; [19]): ≥ 16 mg/kg/day | LEL (rat [2]; systemic / in life observation / body weight / offspring (pup) weight): 5 mg/kg/day

O=P(OC(CCl)CCl)(OC(CCl)CCl)OC(CCl)CCl [TDCPP]
NEL (rat [3]; systemic / pathology microscopic / adrenal gland / adenoma + systemic / pathology microscopic / kidney / adenoma + systemic / pathology …): 5 mg/kg/day | LEL (rat [3]; [20]): 20 mg/kg/day | LOAEL (rat [3]; [20]): > 80 mg/kg/day | NOAEL (rat [3]; [20]): ≥ 80 mg/kg/day

CN(C)NC(=O)CCC(=O)O [Daminozide]
LEL (rat [4]; [21]): 2.01 mg/kg/day | LOAEL (rat [4]; [21]): 2.01 mg/kg/day | NEL (rat [4]; [22]): 0.8 mg/kg/day | NOAEL (rat [4]; [22]): 0.8 mg/kg/day | LOAEL (rat [5]; [23]): > 500 mg/kg/day | NEL (rat [5]; [23]): 25 mg/kg/day | NOAEL (rat [5]; [23]): ≥ 500 mg/kg/day | LEL (rat [5]; systemic / pathology microscopic / adrenal gland / pheochromocytoma malignant): 250 mg/kg/day | LEL (mouse [6]; [24]): 42 mg/kg/day | NEL (mouse [6]; [24]): < 42 mg/kg/day | LOAEL (mouse [6]; [25]): > 1410 mg/kg/day | NOAEL (mouse [6]; [25]): ≥ 1410 mg/kg/day | LEL (rat [7]; [26]): 1800 mg/kg/day | LOAEL (rat [7]; [26]): 1800 mg/kg/day | NEL (rat [7]; [26]): 390 mg/kg/day | NOAEL (rat [7]; [26]): 390 mg/kg/day | LEL (rat [7]; [27]): 1800 mg/kg/day | LOAEL (rat [7]; [27]): 1800 mg/kg/day | NEL (rat [7]; [27]): 390 mg/kg/day | NOAEL (rat [7]; [27]): 390 mg/kg/day | LEL (dog [8]): 188 mg/kg/day | LOAEL (dog [8]): > 188 mg/kg/day | NEL (dog [8]): 75 mg/kg/day | NOAEL (dog [8]): ≥ 188 mg/kg/day

Cc1nc(-c2ccccn2)ncc1C(=O)Nn1cc(C)c2cc(F)ccc21
LEL (dog [9]): 100 mg/kg/day | LOAEL (dog [9]): 100 mg/kg/day | NEL (dog [9]): 30 mg/kg/day | NOAEL (dog [9]): 30 mg/kg/day | LEL (rabbit; [28]): 500 mg/kg/day | LOAEL (rabbit; [28]): > 2000 mg/kg/day | NEL (rabbit; [28]): < 500 mg/kg/day | NOAEL (rabbit; [28]): ≥ 2000 mg/kg/day | LEL (rabbit; [29]): 500 mg/kg/day | LOAEL (rabbit; [29]): > 2000 mg/kg/day | NEL (rabbit; [29]): < 500 mg/kg/day | NOAEL (rabbit; [29]): ≥ 2000 mg/kg/day | LEL (rat [10]; [30]): 110 mg/kg/day | LOAEL (rat [10]; [30]): > 110 mg/kg/day | NEL (rat [10]; [30]): 30 mg/kg/day | NOAEL (rat [10]; [30]): ≥ 110 mg/kg/day | LEL (rat [10]; group: parental, systemic / in life observation / body weight / body weight gain): 30 mg/kg/day | LOAEL (rat [10]; [31]): > 110 mg/kg/day | NEL (rat [10]; [31]): 10 mg/kg/day | NOAEL (rat [10]; [31]): ≥ 110 mg/kg/day | LOAEL (rat [11]; [32]): > 110 mg/kg/day | NEL (rat [11]; [32]): 10 mg/kg/day | NOAEL (rat [11]; [32]): ≥ 110 mg/kg/day | LEL (rat [11]; [28]): 30 mg/kg/day | LEL (rat [11]; [33]): 110 mg/kg/day | LOAEL (rat [11]; [33]): > 110 mg/kg/day | NEL (rat [11]; [33]): 30 mg/kg/day | NOAEL (rat [11]; [33]): ≥ 110 mg/kg/day | LOAEL (rat [12]; [34]): 110 mg/kg/day | NOAEL (rat [12]; [34]): 30 mg/kg/day | LEL (rat [12]; [35]): 10 mg/kg/day | NEL (rat [12]; [35]): < 10 mg/kg/day | LOAEL (rat [13]; [36]): > 110 mg/kg/day | NOAEL (rat [13]; [36]): ≥ 110 mg/kg/day | LEL (rat [13]; [37]): 10 mg/kg/day | NEL (rat [13]; [37]): < 10 mg/kg/day | LOAEL (rat [13]; [38]): 110 mg/kg/day | NEL (rat [13]; [38]): 10 mg/kg/day | NOAEL (rat [13]; [38]): 30 mg/kg/day | LEL (rat [13]; group: maternal, systemic / in life observation / food consumption / food consumption): 30 mg/kg/day

C=CCc1ccc(O)c(OC)c1 [Eugenol]
LEL (rat [14]): 625 mg/kg/day | LOAEL (rat [14]): 625 mg/kg/day | NEL (rat [14]): 300 mg/kg/day | NOAEL (rat [14]): 300 mg/kg/day | LEL (rat [15]; systemic / in life observation / body weight / body weight gain): 1250 mg/kg/day | NEL (rat [15]; systemic / in life observation / body weight / body weight gain + systemic / in life observation / mortality / mortality): 625 mg/kg/day | LOAEL (rat [15]; [39]): > 5000 mg/kg/day | NOAEL (rat [15]; [39]): ≥ 5000 mg/kg/day | LEL (mouse [16]; systemic / in life observation / body weight / body weight + systemic / in life observation / body weight / body weight gain): 1880 mg/kg/day | LOAEL (mouse [16]; [40]): > 15000 mg/kg/day | NEL (mouse [16]; [40]): 900 mg/kg/day | NOAEL (mouse [16]; [40]): ≥ 15000 mg/kg/day | LEL (rat [17]): 300 mg/kg/day | LOAEL (rat [17]): 625 mg/kg/day | NEL (rat [17]): 150 mg/kg/day | NOAEL (rat [17]): 300 mg/kg/day | LOAEL (mouse [18]; systemic / in life observation / body weight / body weight): 900 mg/kg/day | NOAEL (mouse [18]; systemic / in life observation / body weight / body weight + systemic / pathology microscopic / liver / adenoma/carcinoma combined): 450 mg/kg/day | LEL (mouse [18]; [41]): 450 mg/kg/day | NEL (mouse [18]; [41]): < 450 mg/kg/day
